Source: patent publication US8101576B2, “Compounds and their effects on feeding behaviour” (priority 2006, dated 2012)
Square brackets hold non-standard residues; d marks the D form. Ends that are not written are not given here. * marks the point of attachment. Arachidoyl = CCCCCCCCCCCCCCCCCCCC(=O)*; Palmitoyl = CCCCCCCCCCCCCCCC(=O)*; Myristoyl = CCCCCCCCCCCCCC(=O)*

Legend:
[1] = Inhibition of food intake, intraperitoneal injection to fasted mice; format: in vivo, C57BL/6 mice
Procedure: (§1) Animals: All animal procedures were approved by the British Home Office Animals (Scientific Procedures) Act 1986 (Project License number 70/5516).
(§2) Study protocol: C57BL/6 mice (20-35 g) were injected with the peptide under investigation following a 20-hour fast. Wistar rats were injected following a 24-hour fast. […] A pre-weighed quantity of chow was presented immediately after injection.

[2] = Inhibition of food intake, subcutaneous injection to fasted mice; format: in vivo, C57BL/6 mice; details: 20 nmoles/kg
Procedure: Animals: All animal procedures were approved by the British Home Office Animals (Scientific Procedures) Act 1986 (Project License number 70/5516). Male C57BL/6 mice and male Wistar rats were maintained in individual cages under controlled temperature (21-23° C.) with ad libitum access to standard chow (RMI diet, SDS Ltd, Witham, Essex, UK) and to water. The light cycle was 12 hours light and 12 hours dark with ‘dawn’ at 07:00, lights full on at 07:30, ‘dusk’ at 19:00 with lights off at 19:30. These times were fixed in the animal facility, All animals were handled almost daily for on average nine days prior to the first study. During the acclimatization period, mice received two saline injections at least two days apart in order to further acclimatize to the procedure on the study days. It was found in rats that minimising the number of injections provided an optimal response, and so acclimatization injections were not used.
Study protocol: C57BL/6 mice (20-35 g) were injected with the peptide under investigation following a 20-hour fast. Wistar rats were injected following a 24-hour fast. Typically 6 to 10 rodents were used per experimental group. Injections were typically administered at 9:00. A pre-weighed quantity of chow was presented immediately after injection. The remaining food was measured at regular time intervals (e.g. 1, 2, 3, 4, 6, 8, 24, 32 and 48 hours following injection) and food intake calculated.
The feeding effect of the following analogue of oxyntomodulin was investigated: PEPTIDE NO: 355 [SEQ ID NO:355]. The analogue was administered at a dose of […] by subcutaneous injection to a group of fasted mice. A further group was administered saline (control). Mean cumulative food intake over the course of 4 hours is shown in comparison to saline in FIG. 40. […] The food intake suppression continues for the whole 4 hour period; that is to say that the food intake over the 4 hour period is lower than in the saline control.
The feeding effect of the following analogue of oxyntomodulin was investigated: PEPTIDE NO: 130 [SEQ ID NO: 130]. […]

[3] = Inhibition of food intake, subcutaneous injection to fasted rats; format: in vivo, Wistar rats; details: for Mean cumulative food intake in comparison to saline control / food intake in comparison to control group treated with native oxyntomodulin: over 24 hours
Procedure: as §1, §2

Which results are given for “D-His Ala Gln Gly Thr Phe Thr Ser Asp Tyr Ser Lys Tyr Leu Glu Gln Glu Ile Val Lys Tyr Phe Leu Gln Trp Leu Lys Asn Ala Gly Pro Ser Lys Asn Asn Ile Ala ([dH]AQGTFTSDYSKYLEQEIVKYFLQWLKNAGPSKNNIA) [PEPTIDE NO: 136]”?
Mean cumulative food intake in comparison to saline control ([1]; 5 nmoles/kg, over 24 hours): potent and long acting suppression of food intake; food intake in comparison to control group treated with native oxyntomodulin ([1]; 5 nmoles/kg, over 24 hours): lower than in the control group treated with native oxyntomodulin

Which “food intake suppression continues for” value ([2]; 24 hours observed) does the source give for “D-His Ala Gln Gly Thr Phe Thr Ser Asp Tyr Ser Lys Tyr Leu Glu Gln Glu Leu Val Lys Tyr Phe Ile Gln Trp Leu Lys Asn Ala Gly Pro Ser Lys Asn Asn Ile Ala ([dH]AQGTFTSDYSKYLEQELVKYFIQWLKNAGPSKNNIA) [PEPTIDE NO: 130]” here?
The value was ≥ 24 h.

What about the “Mean cumulative food intake in comparison to saline control” value (“Mean cumulative food intake” for short) ([2]; over 24 hours) of the same substance?
The value was “potent and long acting suppression of food intake”.

And the “food intake in comparison to control group treated with native oxyntomodulin” value (“food intake … with native oxyntomodulin” below) ([2]; over 24 hours)?
The value was “lower than in the control group treated with native oxyntomodulin”.

Which “Mean cumulative food intake” value ([1]; 100 nmoles/kg, over 24 hours) does the source give for “D-His Ala Gln Gly Thr Phe Thr Ser Asp Tyr Ser Lys Tyr Leu glu Glu Glu Leu Val Lys Tyr Phe Ile Gln Trp Leu Met Asn Thr Lys Arg Asn Lys Asn Asn Ile Ala ([dH]AQGTFTSDYSKYLEEELVKYFIQWLMNTKRNKNNIA; not fully specified (residue 15)) [PEPTIDE NO: 108]” here?
The value was “potent and long acting suppression of food intake”.

And the “food intake … with native oxyntomodulin” value ([1]; 100 nmoles/kg, over 24 hours)?
Its value is “lower than in the control group treated with native oxyntomodulin”.

With “D-His Ser Gln Gly Thr Phe Thr Ser Asp Tyr Ser Lys Tyr Leu Asp Ser Arg Arg Ala Gln Asp Phe Val Gln Trp Leu Lys Asn Ala Gly Pro Ser Lys Asn Asn Ile Ala ([dH]SQGTFTSDYSKYLDSRRAQDFVQWLKNAGPSKNNIA) [PEPTIDE NO: 195]” as the substance, how does the “Mean cumulative food intake” value ([1]; 800 nmoles/kg, over 24 hours) read?
The value was “potent and long acting suppression of food intake”.

What about the “food intake … with native oxyntomodulin” value ([1]; 800 nmoles/kg, over 24 hours) of the same substance?
Its value is “lower than in the control group treated with native oxyntomodulin”.

Which “Mean cumulative food intake” value ([3]; 10 nmoles/kg) does the source give for “D-His Ser Gln Gly Thr Phe Thr Ser Asp Tyr Ser Lys Tyr Leu Glu Glu Glu Leu Val Lys Tyr Phe Ile Gln Trp Leu Lys Asn Ala Gly Pro Ser Lys Asn Asn Ile Ala ([dH]SQGTFTSDYSKYLEEELVKYFIQWLKNAGPSKNNIA) [PEPTIDE NO: 58]” here?
Its value is “potent and long acting suppression of food intake”.

And the “food intake … with native oxyntomodulin” value ([3]; 10 nmoles/kg)?
Its value is “lower than in the control group treated with native oxyntomodulin”.

Which results are given for “D-His Ser Gln Gly Thr Phe Thr Ser Asp Tyr Ser Lys Tyr Leu Glu Glu Glu Leu Val Lys Tyr Phe Ile Gln Trp Leu Met Asn Thr Lys Arg Asn Lys Asn Asn Ile Ala ([dH]SQGTFTSDYSKYLEEELVKYFIQWLMNTKRNKNNIA) [PEPTIDE NO: 60]”?
Mean cumulative food intake in comparison to saline control ([3]; 100 nmoles/kg): potent and long acting suppression of food intake; food intake in comparison to control group treated with native oxyntomodulin ([3]; 100 nmoles/kg): lower than in the control group treated with native oxyntomodulin

For “D-His Ser Gln Gly Thr Phe Thr Ser Asp Tyr Ser Lys Tyr Leu Glu Glu Glu Leu Val Lys Tyr Phe Leu Gln Trp Leu Lys Asn Ala Gly Pro Ser Lys Asn Asn Ile Ala ([dH]SQGTFTSDYSKYLEEELVKYFLQWLKNAGPSKNNIA) [PEPTIDE NO: 52]”, which “Mean cumulative food intake” value ([3]; 10 nmoles/kg) is on record?
Its value is “potent and long acting suppression of food intake”.

And the “food intake … with native oxyntomodulin” value ([3]; 10 nmoles/kg)?
Its value is “lower than in the control group treated with native oxyntomodulin”.

For “D-His Ser Gln Gly Thr Phe Thr Ser Asp Tyr Ser Lys Tyr Leu Glu Glu Glu Leu Val Lys Tyr Phe Leu Gln Trp Leu Lys Asn Ala Gly Pro Ser Lys Asn Asn Ile Ala Glu Ala Lys ([dH]SQGTFTSDYSKYLEEELVKYFLQWLKNAGPSKNNIAEAK) [PEPTIDE NO: 210]”, which “Mean cumulative food intake” value ([1]; 20 nmoles/kg, over 48 hours) is on record?
The value was “potent and long acting suppression of food intake”.

And the “food intake … with native oxyntomodulin” value ([1]; 20 nmoles/kg, over 48 hours)?
Its value is “lower than in the control group treated with native oxyntomodulin”.

Which “Mean cumulative food intake” value ([1]; 400 nmoles/kg, over 48 hours) does the source give for “D-His Ser Gln Gly Thr Phe Thr Ser Asp Tyr Ser Lys Tyr Leu Glu Glu Glu Leu Val Lys Tyr Phe Leu Gln Trp Leu Lys Asn Ala Gly Pro Ser Lys Asn Asn Ile Ala Glu Ala Lys-arachidoyl ([dH]SQGTFTSDYSKYLEEELVKYFLQWLKNAGPSKNNIAEAK(Arachidoyl)) [PEPTIDE NO: 214]” here?
The value was “potent and long acting suppression of food intake”.

And the “food intake … with native oxyntomodulin” value ([1]; 400 nmoles/kg, over 48 hours)?
Its value is “lower than in the control group treated with native oxyntomodulin”.

Which “Mean cumulative food intake” value ([1]; 200 nmoles/kg, over 48 hours) does the source give for “D-His Ser Gln Gly Thr Phe Thr Ser Asp Tyr Ser Lys Tyr Leu Glu Glu Glu Leu Val Lys Tyr Phe Leu Gln Trp Leu Lys Asn Ala Gly Pro Ser Lys Asn Asn Ile Ala Glu Ala Lys-myristoyl ([dH]SQGTFTSDYSKYLEEELVKYFLQWLKNAGPSKNNIAEAK(Myristoyl)) [PEPTIDE NO: 211]” here?
The value was “potent and long acting suppression of food intake”.

And the “food intake … with native oxyntomodulin” value ([1]; 200 nmoles/kg, over 48 hours)?
The value was “lower than in the control group treated with native oxyntomodulin”.

What does the source list for “D-His Ser Gln Gly Thr Phe Thr Ser Asp Tyr Ser Lys Tyr Leu Glu Glu Glu Leu Val Lys Tyr Phe Leu Gln Trp Leu Lys Asn Ala Gly Pro Ser Lys Asn Asn Ile Ala Glu Ala Lys-palmitoyl ([dH]SQGTFTSDYSKYLEEELVKYFLQWLKNAGPSKNNIAEAK(Palmitoyl)) [PEPTIDE NO: 213]”?
Mean cumulative food intake in comparison to saline control ([1]; 400 nmoles/kg, over 48 hours): potent and long acting suppression of food intake; food intake in comparison to control group treated with native oxyntomodulin ([1]; 400 nmoles/kg, over 48 hours): lower than in the control group treated with native oxyntomodulin

For “HSQGTFTSDYSKYLEEELVKYFLQWLKNAGPSKNNIA [PEPTIDE NO: 4]”, which “Mean cumulative food intake” value ([1]; 5 nmoles/kg, over 24 hours) is on record?
The value was “potent and long acting suppression of food intake”.

What about the “food intake … with native oxyntomodulin” value ([1]; 5 nmoles/kg, over 24 hours) of the same substance?
Its value is “lower than in the control group treated with native oxyntomodulin”.

For “His Ser Gln Gly Thr Phe Thr Ser Asp Tyr Ser Lys Tyr Leu Glu Glu Glu Ile Val Lys Tyr Phe ILe Gln Trp Leu Lys Asn Ala Gly Pro Ser Lys Asn Asn Ile Ala (HSQGTFTSDYSKYLEEEIVKYFIQWLKNAGPSKNNIA) [PEPTIDE NO: 22]”, which “Mean cumulative food intake” value ([3]; 3 nmoles/kg) is on record?
Its value is “potent and long acting suppression of food intake”.

What about the “food intake … with native oxyntomodulin” value ([3]; 3 nmoles/kg) of the same substance?
The value was “lower than in the control group treated with native oxyntomodulin”.

Which results are given for “PEPTIDE NO: 216: analogue of oxyntomodulin with Asn34 replaced by Asp34; sequence shown only in FIG. 1 (HSQGTFTSDYSKYLEEELVKYFLEWLKNAGPSKDNIA)”?
food intake suppression continues for ([3]; 10 nmoles/kg, 24 hours observed): ≥ 24 h; Mean cumulative food intake in comparison to saline control ([3]; 10 nmoles/kg): potent and long acting suppression of food intake; food intake in comparison to control group treated with native oxyntomodulin ([3]; 10 nmoles/kg): lower than in the control group treated with native oxyntomodulin

For “[dH]ADGWFWSDYSKYLDSRRAQDFVQWLKNAGPSKNNIA [PEPTIDE NO: 199]”, which “Mean cumulative food intake” value ([3]; 500 nmoles/kg) is on record?
Its value is “potent and long acting suppression of food intake”.

And the “food intake … with native oxyntomodulin” value ([3]; 500 nmoles/kg)?
The value was “lower than in the control group treated with native oxyntomodulin”.
